Test results reported in patent publication US6335350B1, “Acetamide and substituted acetamide-containing thiourea inhibitors of herpes viruses” (American Home Products Corporation, priority 1998, dated 2002).
Values after ≈ are worked out from the molar mass of the structure shown.

Columns and labels:
HCMV wild-type = test: HCMV yield assay; type: cell-based, human cytomegalovirus; details: human foreskin fibroblasts; for IC50: Human betaherpesvirus 5, Fibroblast, read-out: IC50 Ug/ml HCMV
Outline: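 HCMV wild-type infected human foreskin fibroblast monolayers at MOI typically 0.2 with varying compound concentrations; virus yield harvested at 3 days post-infection and titered on fibroblasts without inhibitor, plaques counted at 2 weeks. IC50 or IC90 = compound amount reducing yield titer by 50% or 90%.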

VZV strain Ellen = test: VZV Antiviral (ELISA) Assay; type: cell-based, varicella-zoster virus; details: human foreskin fibroblast cells; for IC50 / inhibition at 10 µg/mL: Human alphaherpesvirus 3, Fibroblast; for IC50: read-out: IC50 Ug/ml VZV; for inhibition at 10 µg/mL: read-out: % inhibition 10 ug/ml VZV, 10 ug/ml
Outline: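 Low-MOI (<0.1) Ellen infection of HFF overnight; cell mix plated 3.5×10^4/well with compound, DMEM + 2% FBS, 3 d, 37° C, 5% CO2. Fix, anti-gpII mAb ELISA, MUG substrate, fluorescence. IC50 vs compound-free signal.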

HSV-1 = test: HSV Antiviral (ELISA) Assay; type: cell-based, herpes simplex virus type 1; details: Vero cells, HSV-1; for IC50: Human alphaherpesvirus 1, Vero, read-out: IC50 Ug/ml HSV
Outline: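 Vero cells in DMEM/2% FBS pretreated with compound 30 min before HSV-1 infection (MOI 0.006), then ~24 h at 37 °C. Viral gD detected by ELISA with β-galactosidase secondary and 4-methylumbelliferyl-galactoside (ex 365/em 450 nm); IC50 from fluorescence versus untreated infected cells.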

| IC50 (HSV-1) | IC50 Ug/ml HSV (HSV-1) | SMILES | IC50 (HCMV wild-type) | IC50 (VZV strain Ellen) | inhibition at 10 µg/mL (VZV strain Ellen) | IC50 Ug/ml HCMV (HCMV wild-type) | % inhibition 10 ug/ml VZV (VZV strain Ellen; 10 ug/ml) | IC50 Ug/ml VZV (VZV strain Ellen) |
| --- | --- | --- | --- | --- | --- | --- | --- | --- |
| 12 µg/mL (≈ 34.6 µM) |  | COc1ccc(NC(=S)Nc2ccc(NC(C)=O)cc2)c(OC)n1 [Example 896, N-{4-[3-(2,6-Dimethoxy-pyridin-3-yl)-thioureido]-phenyl}-acetamide] | > 50 µg/mL | > 10 µg/mL | 17% |  |  |  |
| 3 µg/mL (≈ 6.24 µM) |  | CCCCCC(=O)Nc1ccc(NC(=S)Nc2cc(Br)c(OC)cc2OC)cc1 [Example 826, Hexanoic acid {4-[3-(5-bromo-2,4-dimethoxy-phenyl)-thioureido]-phenyl}-amide] | > 10 µg/mL | > 10 µg/mL | 30% |  |  |  |
| 50 µg/mL (≈ 127 µM) |  | COc1cc(OC)c(NC(=S)Nc2ccc(N(C)C(C)=O)cc2)cc1Cl [Example 99, N-{4-[3-(5-Chloro-2,4-dimethoxy-phenyl)-thioureido]-phenyl}-N-methyl-acetamide] | > 50 µg/mL | > 10 µg/mL | 2% |  |  |  |
| 3 µg/mL (≈ 7.62 µM) |  | CCOc1cc(OC)c(Cl)cc1NC(=S)Nc1ccc(NC(C)=O)cc1 [Example 831, N-{4-[3-(5-Chloro-2-ethoxy-4-methoxy-phenyl)-thioureido]-phenyl}-acetamide] | > 10 µg/mL | > 10 µg/mL | 11% |  |  |  |
| 25 µg/mL (≈ 72.4 µM) |  | COc1ccc(NC(=S)Nc2ccc(NC(C)=O)cc2)c(OC)c1 [Example 103, N-{4-[3-(2,4-Dimethoxy-phenyl)-thioureido]-phenyl}-acetamide] | > 50 µg/mL | > 10 µg/mL | 28% |  |  |  |
| 8 µg/mL (≈ 15.7 µM) |  | CC(=O)Nc1ccc(NC(=S)Nc2ccc(NC3CCN(Cc4ccccc4)CC3)c(Cl)c2)cc1 [Example 315, N-(4-{3-[4-(1-Benzyl-piperidin-4-ylamino)-3-chloro-phenyl]-thioureido}-phenyl)-acetamide] | 1.5 µg/mL (≈ 2.95 µM) | > 10 µg/mL | 40% |  |  |  |
| > 10 µg/mL |  | CC(=O)Nc1ccc(NC(=S)Nc2ccc(-c3cc[nH]n3)c(Cl)c2)cc1 [Example 925, N-(4-{3-[3-Chloro-4-(1H-pyrazol-3-yl)-phenyl]-thioureido}-phenyl)-acetamide] | 3.5 µg/mL (≈ 9.07 µM) | > 10 µg/mL | 32% |  |  |  |
|  | >10 Ug/ml | CC(=O)Nc1ccc(NC(=S)Nc2ccc(NC(=O)CN(C)C)c(Cl)c2)cc1 [Example 360, N-{4-[3-(4-Acetylamino-phenyl)-thioureido]-2-chloro-phenyl}-2-dimethyl-amino-acetamide] |  |  |  | >10 Ug/ml | 16% | >10 Ug/ml |
| > 10 µg/mL |  | CCCCCCN(C)c1ccc(NC(=S)Nc2ccc(NC(C)=O)cc2)cc1Cl [Example 906, N-(4-{3-[3-Chloro-4-(hexyl-methyl-amino)-phenyl]-thioureido}-phenyl)-acetamide] | 1.5 µg/mL (≈ 3.46 µM) | > 10 µg/mL | 32% |  |  |  |
| 35 µg/mL (≈ 83.5 µM) |  | CC(=O)Nc1ccc(NC(=S)Nc2ccc(OC3CCN(C)C3)c(Cl)c2)cc1 (centres unmarked) [Example 334, N-(4-{3-[3-Chloro-4-(1-methyl-pyrrolidin-3-yloxy)-phenyl]-thioureido}-phenyl)-acetamide] | 18 µg/mL (≈ 43 µM) | > 10 µg/mL | 7% |  |  |  |
| > 50 µg/mL |  | CC(=O)Nc1ccc(NC(=S)Nc2ccc(N(C)CCCN(C)C)c(Cl)c2)cc1 [Example 298, N-[4-(3-{3-Chloro-4-[(3-dimethylamino-propyl)-methyl-amino]-phenyl}-thioureido)-phenyl]-acetamide] | 15 µg/mL (≈ 34.6 µM) | > 10 µg/mL | 1% |  |  |  |
| 3 µg/mL (≈ 7.16 µM) |  | COc1cc(N2CCCC2)c(NC(=S)Nc2ccc(NC(C)=O)cc2)cc1Cl [Example 228, N-{4-[3-(5-Chloro-4-methoxy-2-pyrrolidin-1-yl-phenyl)-thioureido]-phenyl}-acetamide] | > 10 µg/mL | > 10 µg/mL | 35% |  |  |  |
| > 50 µg/mL |  | COc1cc(NC(=S)Nc2ccc(NC(C)=O)cc2)cc(OC)c1OC [Example 151, N-{4-[3-(3,4,5-Trimethoxy-phenyl)-thioureido]-phenyl}-acetamide] | 40 µg/mL (≈ 107 µM) | > 10 µg/mL | 0% |  |  |  |
| 8 µg/mL (≈ 17.5 µM) |  | COc1cc(OCc2ccccc2)c(NC(=S)Nc2ccc(NC(C)=O)cc2)cc1Cl [Example 835, N-{4-[3-(2-Benzyloxy-5-chloro-4-methoxy-phenyl)-thioureido]-phenyl}-acetamide] | > 10 µg/mL | > 10 µg/mL | 38% |  |  |  |
| > 10 µg/mL |  | CC(=O)Nc1ccc(NC(=S)Nc2cccc(Cl)c2Cl)cc1 [Example 926, N-{4-[3-(2,3-Dichloro-phenyl)-thioureido]-phenyl}-acetamide] | 10 µg/mL (≈ 28.2 µM) | > 10 µg/mL | 16% |  |  |  |
|  | 10 Ug/ml | COc1c(NC(=S)Nc2ccc(NC(C)=O)cc2)cc(Cl)c(C)c1Cl [Example 876, N-{4-[3-(3,5-Dichloro-2-methoxy-4-methyl-phenyl)-thioureido]-phenyl}-acetamide] | 1 µg/mL (≈ 2.51 µM) | > 10 µg/mL | 58% |  |  |  |
| 1.5 µg/mL (≈ 4.1 µM) |  | CSc1ccc(NC(=S)Nc2ccc(NC(C)=O)cc2)cc1Cl [Example 840, N-{4-[3-(3-Chloro-4-methylsulfanyl-phenyl)-thioureido]-phenyl}-acetamide] | 0.4 µg/mL (≈ 1.09 µM) | > 10 µg/mL | 0% |  |  |  |
| 35 µg/mL (≈ 72.9 µM) |  | COc1cc(OCC(=O)OC(C)(C)C)c(Cl)cc1NC(=S)Nc1ccc(NC(C)=O)cc1 [Example 216, {4-[3-(4-Acetylamino-phenyl)-thioureido]-2-chloro-5-methoxy-phenoxy}-acetic acid tert-butyl ester] | > 10 µg/mL | > 10 µg/mL | 23% |  |  |  |
| 4 µg/mL (≈ 10 µM) |  | CC(=O)Nc1ccc(NC(=S)Nc2ccc(Br)c(Cl)c2)cc1 [Example 904, N-{4-[3-(4-Bromo-3-chloro-phenyl)-thioureido]-phenyl}-acetamide] | 1 µg/mL (≈ 2.51 µM) | > 10 µg/mL | 26% |  |  |  |
| 2 µg/mL (≈ 4.47 µM) |  | COc1cc(OC)c(NC(=S)Nc2ccc(NC(C)=O)cc2C(F)(F)F)cc1Cl [Example 358, N-{4-[3-(5-Chloro-2,4-dimethoxy-phenyl)-thioureido]-3-trifluoromethyl-phenyl}-acetamide] | > 10 µg/mL | > 10 µg/mL | 31% |  |  |  |
| 2 µg/mL (≈ 5.99 µM) |  | CC(=O)Nc1ccc(NC(=S)Nc2ccc(C)c(Cl)c2)cc1 [Example 889, N-{4-[3-(3-Chloro-4-methyl-phenyl)-thioureido]-phenyl}-acetamide] | 1.2 µg/mL (≈ 3.59 µM) | > 10 µg/mL | 1% |  |  |  |
| > 10 µg/mL |  | CC(=O)Nc1ccc(NC(=S)Nc2ccc(OC3CCCCC3)c(Cl)c2)cc1 [Example 345, N-{4-[3-(3-Chloro-4-cyclohexyloxy-phenyl)-thioureido]-phenyl}-acetamide] | > 10 µg/mL | > 10 µg/mL | 30% |  |  |  |
| 50 µg/mL (≈ 129 µM) |  | CC(=O)Nc1ccc(NC(=S)Nc2ccc(N3CCCC3)c(Cl)c2)cc1 [Example 242, N-{4-[3-(3-Chloro-4-pyrrolidin-1-yl-phenyl)-thioureido]-phenyl}-acetamide] | > 10 µg/mL | > 10 µg/mL | 20% |  |  |  |
| > 50 µg/mL |  | CC(=O)Nc1ccc(NC(=S)Nc2ccc(N3CCOCC3)c(Cl)c2)cc1 [Example 205, N-{4-[3-(3-Chloro-4-morpholin-4-yl-phenyl)-thioureido]-phenyl}-acetamide] | 20 µg/mL (≈ 49.4 µM) | > 10 µg/mL | 30% |  |  |  |
| > 10 µg/mL |  | COc1ccc(NC(=S)Nc2ccc(NC(C)=O)cc2)c(NCc2ccccc2)c1 [Example 245, N-{4-[3-(2-Benzylamino-4-methoxy-phenyl)-thioureido]-phenyl}-acetamide] | > 10 µg/mL | 3.5 µg/mL (≈ 8.32 µM) | 73% |  |  |  |
| > 10 µg/mL |  | CC(=O)Nc1ccc(NC(=S)Nc2ccc(-c3ccno3)c(Cl)c2)cc1 [Example 924, N-{4-[3-(3-Chloro-4-isoxazol-5-yl-phenyl)-thioureido]-phenyl}-acetamide] | 0.9 µg/mL (≈ 2.33 µM) | > 10 µg/mL | 4% |  |  |  |

| SMILES | IC50 (HSV-1) | IC50 Ug/ml HSV (HSV-1) | IC50 (HCMV wild-type) | IC50 (VZV strain Ellen) | inhibition at 10 µg/mL (VZV strain Ellen) | IC50 Ug/ml HCMV (HCMV wild-type) | % inhibition 10 ug/ml VZV (VZV strain Ellen; 10 ug/ml) | IC50 Ug/ml VZV (VZV strain Ellen) |
| --- | --- | --- | --- | --- | --- | --- | --- | --- |
| CCCCOc1c(Cl)cc(NC(=S)Nc2ccc(NC(C)=O)cc2)cc1Cl [Example 177, N-{4-[3-(4-Butoxy-3,5-dichloro-phenyl)-thioureido]-phenyl}-acetamide] | > 50 µg/mL |  | 3.5 µg/mL (≈ 8.21 µM) | > 10 µg/mL | 19% |  |  |  |
| CCCCOc1cc(OC)c(Cl)cc1NC(=S)Nc1ccc(NC(C)=O)cc1 [Example 833, N-{4-[3-(2-Butoxy-5-chloro-4-methoxy-phenyl)-thioureido]-phenyl}-acetamide] | 7 µg/mL (≈ 16.6 µM) |  | > 10 µg/mL | > 10 µg/mL | 54% |  |  |  |
| CCC(C)Oc1ccc(NC(=S)Nc2ccc(NC(C)=O)cc2)cc1Cl (centres unmarked) [Example 252, N-{4-[3-(4-sec-Butoxy-3-chloro-phenyl)-thioureido]-phenyl}-acetamide] | 10 µg/mL (≈ 25.5 µM) |  | 10 µg/mL (≈ 25.5 µM) | > 10 µg/mL | 0% |  |  |  |
